Laboratory results taken from patent US5726153A, “Synthetic peptides for arterial imaging” (New England Deaconess Hospital Corporation, priority 1995, dated 1998).
“Also recorded” adds a separate entry of the source. Ends that are not written are not given here.

Key:
[1] = Plasma decay of 125I-labelled synthetic peptide after intravenous injection; assay type: in vivo, rabbit; details: for plasma level leveled off to / plasma level after one hour: 125I-labelled peptide, intravenous, rabbit; for additional fall of plasma level over the next three hours: from one to four hours after injection
Experimental: (§1) Each labelled synthetic peptide preparation (containing, for example, 150 to 400 or more μCi of ^125 I-labelled peptide) in column elution buffer was injected into the marginal ear vein of the ballooned and healing New Zealand white rabbits or WHHL rabbits. Serial blood samples were obtained from the opposite ear during the ensuing 0-24 hours and were analyzed for radioactivity. The labelled peptide concentrations in the blood samples that were withdrawn over the first 10 minutes after injection were extrapolated to zero time to determine the time zero radioactivity in the calculation of average plasma radioactivity. […] Peptides SP15a, SP17, SP19a, SP21a, SP28, SP34a, and SP30 were cleared rapidly from the plasma with half-lives of about one minute or less; after one hour, the plasma levels were less than 10% of the injected dose and fell by an additional 1% over the next three hours. Peptides SP15a, SP17, SP21a, SP28, SP34a, and SP30 leveled off to a plasma level of 3-6%; peptide SP19a cleared more quickly and leveled off to a concentration of 0.3% (at four hours).

[2] = test system: balloon de-endothelialized healing abdominal aorta; assay: Focal accumulation at vascular injury, onlay autoradiography of excised aorta, balloon de-endothelialized rabbit; assay type: in vivo, New Zealand white rabbits
Experimental: The peptides described herein were assayed for their ability to target sites of vascular injury as follows. Male New Zealand white rabbits (2 to 3 kg each) were obtained from ARI Breeding Labs, West Bridgewater, Mass. To induce vascular injury, their abdominal aortas were denuded of endothelium by a modification of the Baumgartner technique (Fischman et al., Arteriosclerosis 7:361, 1987). Briefly, after each animal was anesthetized with ketamine and ether or, alternatively, with xylazine (20 mg/ml) and Ketalar (50 mg/ml), the left femoral artery was isolated; a 4F Fogarty embolectomy catheter (Model 12-040-4F, Edwards Laboratories Incorporated, Santa Anna, Calif.) was introduced through an arterotomy in the femoral artery and was advanced under fluoroscopic visualization to the level of the diaphragm. The catheter was inflated to a pressure of about 3 psi above the balloon inflation pressure with radiographic contrast medium (Conray, Mallinkrodt, St. Louis, Mo.). Three passes were made through the abdominal aorta with the inflated catheter to remove the aortic endothelium before removal of the catheter, ligation of the femoral artery, and closure of the wound. The animals were allowed to heal for a period of 4 to 5 weeks before injection of the labelled synthetic peptides.
as §1
One to twenty-four hours after injection of the labelled synthetic peptide preparations, each animal was injected intravenously with 4 ml of a 0.5% solution of Evans blue dye (Allied Chemical Company, National Aniline Division, NY, N.Y.) which stains areas of de-endothelialized aorta blue. After 30 minutes, the animal was sacrificed by a lethal injection of pentobarbital. After sacrifice, the aorta was removed completely, washed in saline, and fixed in 10% trichloroacetic acid.
The washed and fixed aortas from the animals that had been injected with radiolabelled synthetic peptide were opened along the ventral surface. These segments were then pinned out, fixed for 2 hours in 10% trichloroacetic acid, and photographed. The fixed, opened vessels were then covered with a single layer of plastic (Saran) wrap, placed on high speed x-ray film (Kodak Orthofilm OH-1), and stored for 3 days to 4 weeks in a Kodak "X-Omatic cassette" (24×30 cm) at -70° C. before development in a 90 second X-OMAT.

anti-SP-4 antiserum = assay: ELISA cross-reactivity: peptide-coated plates treated with anti-SP-4 antiserum; assay type: binding, rabbit; details: FIG. 4
Experimental: To produce anti-synthetic peptide antisera, purified synthetic peptide was dissolved in PBS, pH 7.4 at a concentration of 1 mg/ml. The peptide solution was mixed with an equal volume of complete Freund's adjuvant and vortexed thoroughly until a thick emulsion was produced. New Zealand White rabbits (Millbrook Farms, Amherst, Mass.) were injected with a total of 0.5 mg synthetic peptide administered subcutaneously in the four dorsal quadrants. The rabbits were given a boost (injected at the same sites) with 0.5 mg peptide emulsified in incomplete Freund's adjuvant 2-3 weeks later. Eight to ten days after the first boost, the animals were given a second, identical boost and were bled of 30 ml 8 to 10 days later.
To test for immunological cross-reactivity microtiter plates (Immulon II Dynatech Labs, Chantilly, Va.) were coated with the purified synthetic peptide or LDL by an overnight incubation at 4° C. with 100 ng peptide per well in 50 mM carbonate, pH 9.6, and blocked for nonspecific binding with an additional overnight incubation with phosphate-buffered saline, pH 7.4 (PBS), 1% bovine serum albumin (BSA). Control wells were coated with BSA alone. After washing twice with PBS, the wells were filled with serial dilutions (1:10 to 1:100,000 made in PBS, 3% BSA) of a rabbit polyclonal antibody generated against the synthetic peptide(s) and incubated for 45 minutes at room temperature. Following thorough washing (3× with PBS, 0.1% BSA), the wells were filled with a 1:2000 dilution of goat anti-rabbit IgG-horseradish peroxidate conjugate (Atlantic Antibodies, Scarborough, Me.). After a final wash, the wells were filled with 3,3'-5,5'- tetramethybenzidine (TMB) microwell peroxidase substrate (Kirkegaard and Perry Labs, Gaithersburg, Md.) and read at 650 nm every two minutes on an ELISA-5 automated plate reader (Physica, New York, N.Y.). Results (see, e.g., FIGS. 4 and 5) are expressed as the initial velocity of substrate conversion (change in OD650 /hr), which is determined by a linear regression of 15 data points per well. Each data point represents the average of three measured data points from the same plate, run at the same time.

[3] = test system: atherosclerotic lesions of the aorta; assay: Focal accumulation at atherosclerotic lesions, onlay autoradiography of excised aorta, WHHL rabbit; assay type: in vivo, Watanabe Heritable Hyperlipemic (WHHL) rabbits; details: FIG. 7
Experimental: Watanabe Heritable Hyperlipemic (WHHL) rabbits were also used as animal models. They were obtained from the WHHL Rabbit Program of the National Heart Lung and Blood Institute (Bethesda, Md.) at about 3 months of age and weighing about 1.5 kg. The animals were raised until they were 3-4 kg in weight.
as §1, with “hours). […]” for “hours).”

**Q.** For “Ac-YAKFRETLEDTRDRMY-NH2 [SP-15a, CH3 CONH-Tyr-Ala-Lys-Phe-Arg-Glu-Thr-Leu-Glu-Asp-Thr-Arg-Asp-Arg-Met-Tyr-CONH2]”, which “plasma level leveled off to” value [1] is on record?
**A.** 3-6%

**Q.** And the “plasma level after one hour” value [1]?
**A.** less than 10 % of the injected dose

**Q.** What about the “additional fall of plasma level over the next three hours” value [1] of the same substance?
**A.** 1%

**Q.** And the “localization of 125I-labelled peptide on onlay autoradiograph of the aorta” value (shortened to “localization of 125I-labelled peptide”) [2]?
**A.** accumulated focally at the leading edges of regenerating endothelial tissue

**Q.** For “Ac-YRALVDTEFKVKQEAGAK-NH2 [SP-21a, CH3 CONH-Tyr-Arg-Ala-Leu-Val-Asp-Thr-Glu-Phe-Lys-Val-Lys-Gln-Glu-Ala-Gly-Ala-Lys-CONH2]”, which “plasma level leveled off to” value [1] is on record?
**A.** 3-6%

**Q.** And the “plasma level after one hour” value [1]?
**A.** less than 10 % of the injected dose

**Q.** What about the “additional fall of plasma level over the next three hours” value [1] of the same substance?
**A.** 1%

**Q.** And the “localization of 125I-labelled peptide” value [2]?
**A.** accumulated focally at the leading edges of regenerating endothelial tissue

**Q.** For “Ac-YRALVDTLKFVTEQAKGA-NH2 [SP-19a, CH3 CONH-Tyr-Arg-Ala-Leu-Val-Asp-Thr-Leu-Lys-Phe-Val-Thr-Glu-Gln-Ala-Lys-Gly-Ala-CONH2]”, which “plasma level after one hour” value [1] is on record?
**A.** less than 10 % of the injected dose

**Q.** And the “plasma concentration leveled off to” value ([1]; at four hours)?
**A.** 0.3%

**Q.** And the “additional fall of plasma level over the next three hours” value [1]?
**A.** 1%

**Q.** And the “localization of 125I-labelled peptide” value [2]?
**A.** accumulated focally at the leading edges of regenerating endothelial tissue

**Q.** For Ac-YVLDEFREKLNEELEALKQK-NH2 [SP-34a], which “plasma level leveled off to” value [1] is on record?
**A.** 3-6%

**Q.** And the “plasma level after one hour” value [1]?
**A.** less than 10 % of the injected dose

**Q.** What about the “additional fall of plasma level over the next three hours” value [1] of the same substance?
**A.** 1%

**Q.** And the “localization of 125I-labelled peptide” value [2]?
**A.** accumulated focally at the leading edges of regenerating endothelial tissue

**Q.** For “CH3 CONH-Tyr-Arg-Ala-Leu-Val-Asp-Thr-Leu-Lys-CONH2 (Ac-YRALVDTLK-NH2) [SP-14A, modified counterpart of SP-14]”, which “binding of anti-SP-4 antiserum to the peptide” value (“binding of anti-SP-4 antiserum” for short) (anti-SP-4 antiserum) is on record?
**A.** bind

**Q.** For “CH3 CONH-Tyr-Arg-Ala-Leu-Val-Asp-Thr-Leu-Lys-Phe-Val-Thr-Gln-Ala-Glu-Gly-Ala-Lys-CONH2 (Ac-YRALVDTLKFVTQAEGAK-NH2) [SP-4A, modified counterpart of SP-4]”, which “binding of anti-SP-4 antiserum” value (anti-SP-4 antiserum) is on record?
**A.** bind

**Q.** For “CH3 CONH-Tyr-Arg-Ala-Leu-Val-Asp-Tyr-Leu-Lys-Phe-Val-Thr-Gln-Leu-CONH2 (Ac-YRALVDYLKFVTQL-NH2) [SP-12A, modified counterpart of SP-12]”, which “binding of anti-SP-4 antiserum” value (anti-SP-4 antiserum) is on record?
**A.** bind

**Q.** Which “binding of anti-SP-4 antiserum” value (anti-SP-4 antiserum) does the source give for “CH3 CONH-Tyr-Lys-Leu-Ala-Leu-Glu-Ala-Ala-Arg-Leu-Leu-Ala-Asn-Ala-Glu-Gly-Ala-Lys-CONH2 (Ac-YKLALEAARLLANAEGAK-NH2) [SP-8A, modified counterpart of SP-8]” here?
**A.** bind

**Q.** For “CH3 CONH-Tyr-Lys-Leu-Ala-Leu-Glu-Ala-Ala-Arg-Leu-Leu-Ala-Asp-Ala-Glu-Gly-Ala-Lys-CONH2 (Ac-YKLALEAARLLADAEGAK-NH2) [SP-6A, modified counterpart of SP-6]”, which “binding of anti-SP-4 antiserum” value (anti-SP-4 antiserum) is on record?
**A.** bind

**Q.** For “H2 N-Tyr-Lys-Leu-Ala-Leu-Glu-Ala-Ala-Arg-Leu-Leu-Ala-Asn-Ala-Glu-Gly-Ala-Lys- CONH2 (H-YKLALEAARLLANAEGAK-NH2) [SP-8, conservatively substituted SP-4]”, which “binding of anti-SP-4 antiserum” value (anti-SP-4 antiserum) is on record?
**A.** bind

**Q.** Which “binding of anti-SP-4 antiserum” value (anti-SP-4 antiserum) does the source give for “H2 N-Tyr-Lys-Leu-Ala-Leu-Glu-Ala-Ala-Arg-Leu-Leu-Ala-Asp-Ala-Glu-Gly-Ala-Lys- CONH2 (H-YKLALEAARLLADAEGAK-NH2) [SP-6, conservatively substituted SP-4]” here?
**A.** bind

**Q.** What does the source list for “NH2 -Tyr-Arg-Ala-Leu-Val-Asp-Thr-Leu-Lys-Phe-Val-Thr-Gln-Ala-Glu-Gly-Ala-Lys-CONH2 (H-YRALVDTLKFVTQAEGAK-NH2) [SP-4]”?
**A.** binding of anti-SP-4 antiserum to the peptide (anti-SP-4 antiserum): bind; localization of 125I-labelled peptide on onlay autoradiograph of the aorta [3]: clearly correspond to the radioactively-labelled lesions; also recorded: localizes at atherosclerotic lesions; localization of 125I-labelled peptide on onlay autoradiograph of the aorta [2]: clear-cut localization of the synthetic peptide on the image at the healing (re-endothelizing) edge of the aortic lesions; also recorded: labelled healing lesions

**Q.** For “YAALDLNAVANKIADFEL-NH2 [SP-17, H2 N-Tyr-Ala-Ala-Leu-Asp-Leu-Asn-Ala-Val-Ala-Asn-Lys-Ile-Ala-Asp-Phe-Glu-Leu- CONH2]”, which “plasma level leveled off to” value [1] is on record?
**A.** 3-6%

**Q.** What about the “plasma level after one hour” value [1] of the same substance?
**A.** less than 10 % of the injected dose

**Q.** What about the “additional fall of plasma level over the next three hours” value [1] of the same substance?
**A.** 1%

**Q.** What about the “localization of 125I-labelled peptide” value [2] of the same substance?
**A.** accumulated focally at the leading edges of regenerating endothelial tissue

**Q.** Which “plasma level leveled off to” value [1] does the source give for “YVGVAPGVGVAPGVGVAPG [SP-28, H2 N-Tyr-Val-Gly-Val-Ala-Pro-Gly-Val-Gly-Val-Ala-Pro-Gly-Val-Gly-Val-Ala-Pro- Gly-OH]” here?
**A.** 3-6%

**Q.** And the “plasma level after one hour” value [1]?
**A.** less than 10 % of the injected dose

**Q.** What about the “additional fall of plasma level over the next three hours” value [1] of the same substance?
**A.** 1%

**Q.** What about the “localization of 125I-labelled peptide” value [2] of the same substance?
**A.** accumulated focally at the leading edges of regenerating endothelial tissue

**Q.** For “YVPGVGVPGVGVPGVGVPGVG-NH2 [SP-30, H2 N-Tyr-Val-Pro-Gly-Val-Gly-Val-Pro-Gly-Val-Gly-Val-Pro-Gly-Val-Gly-Val-pro- Gly-Val-Gly-CONH2]”, which “plasma level leveled off to” value [1] is on record?
**A.** 3-6%

**Q.** And the “plasma level after one hour” value [1]?
**A.** less than 10 % of the injected dose

**Q.** What about the “additional fall of plasma level over the next three hours” value [1] of the same substance?
**A.** 1%

**Q.** And the “localization of 125I-labelled peptide” value [2]?
**A.** accumulated focally at the leading edges of regenerating endothelial tissue
